Assay results published in the kinase profiling compilation of Christmann-Franck et al. (2016).
Several values for one entry are separate records, joined by “and”; a condition that tells them apart may be missing. Identical values can stand only once.

How the values were obtained:
Assay in all cases: Caliper, Mobility shift assay off-chip
MARK1 (human) = MARK1 (human) (UniProt Q9P0L2)
[1] = tested on: ABL1 (human), P00519 [T315I]
BRSK2 (human) = BRSK2 (human) (UniProt Q8IWQ3)
IKBKB (human) = IKBKB (human) (UniProt O14920)
FGFR2 (human) = FGFR2 (human) (UniProt P21802)
PRKG1 (human) = PRKG1 (human) (UniProt Q13976)
Chain of PRKG1 (human) (Q13976 whole entry, looked up): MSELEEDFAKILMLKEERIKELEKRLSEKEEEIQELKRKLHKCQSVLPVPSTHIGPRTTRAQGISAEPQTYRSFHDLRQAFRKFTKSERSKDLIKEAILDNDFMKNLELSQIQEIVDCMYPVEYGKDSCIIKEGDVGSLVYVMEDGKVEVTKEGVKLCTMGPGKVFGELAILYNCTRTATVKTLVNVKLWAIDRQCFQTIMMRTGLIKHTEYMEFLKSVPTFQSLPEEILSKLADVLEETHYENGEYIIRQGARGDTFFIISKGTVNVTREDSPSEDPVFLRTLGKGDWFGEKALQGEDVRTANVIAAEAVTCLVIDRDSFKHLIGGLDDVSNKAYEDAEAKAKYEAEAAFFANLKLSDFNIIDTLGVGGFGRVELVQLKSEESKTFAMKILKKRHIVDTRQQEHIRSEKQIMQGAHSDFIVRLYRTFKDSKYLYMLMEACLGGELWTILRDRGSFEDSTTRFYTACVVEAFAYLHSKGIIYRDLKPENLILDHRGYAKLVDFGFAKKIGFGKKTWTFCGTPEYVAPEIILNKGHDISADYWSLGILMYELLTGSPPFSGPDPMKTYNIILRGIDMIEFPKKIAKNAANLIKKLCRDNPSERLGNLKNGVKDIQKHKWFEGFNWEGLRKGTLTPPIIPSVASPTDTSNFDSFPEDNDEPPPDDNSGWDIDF

MARK2 (human) = MARK2 (human) (UniProt Q7KZI7)
NEK2 (human) = NEK2 (human) (UniProt P51955)
SGK3 (human) = SGK3 (human) (UniProt Q96BR1)
Chain of SGK3 (human) (Q96BR1 whole entry, looked up): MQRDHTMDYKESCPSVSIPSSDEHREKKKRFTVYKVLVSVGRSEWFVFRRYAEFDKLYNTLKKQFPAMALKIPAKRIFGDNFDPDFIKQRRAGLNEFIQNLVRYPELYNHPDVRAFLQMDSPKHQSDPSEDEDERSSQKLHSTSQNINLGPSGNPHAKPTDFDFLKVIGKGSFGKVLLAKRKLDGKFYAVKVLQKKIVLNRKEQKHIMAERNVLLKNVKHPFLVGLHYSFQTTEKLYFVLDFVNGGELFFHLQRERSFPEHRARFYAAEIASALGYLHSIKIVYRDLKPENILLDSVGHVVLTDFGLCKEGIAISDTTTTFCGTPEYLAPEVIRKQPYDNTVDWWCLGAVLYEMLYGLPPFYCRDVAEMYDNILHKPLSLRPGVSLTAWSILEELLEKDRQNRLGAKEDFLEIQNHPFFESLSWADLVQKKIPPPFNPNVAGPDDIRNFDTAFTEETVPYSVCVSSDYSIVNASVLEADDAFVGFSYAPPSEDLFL

BRSK1 (human) = BRSK1 (human) (UniProt Q8TDC3)
PRKCD (human) = PRKCD (human) (UniProt Q05655)
MAPK1 (human) = MAPK1 (human) (UniProt P28482)
RPS6KA5 KD1 KD2 (human) = RPS6KA5 KD1 KD2 (human) (UniProt O75582)
Chain of RPS6KA5 KD1 KD2 (human) (O75582 whole entry, looked up): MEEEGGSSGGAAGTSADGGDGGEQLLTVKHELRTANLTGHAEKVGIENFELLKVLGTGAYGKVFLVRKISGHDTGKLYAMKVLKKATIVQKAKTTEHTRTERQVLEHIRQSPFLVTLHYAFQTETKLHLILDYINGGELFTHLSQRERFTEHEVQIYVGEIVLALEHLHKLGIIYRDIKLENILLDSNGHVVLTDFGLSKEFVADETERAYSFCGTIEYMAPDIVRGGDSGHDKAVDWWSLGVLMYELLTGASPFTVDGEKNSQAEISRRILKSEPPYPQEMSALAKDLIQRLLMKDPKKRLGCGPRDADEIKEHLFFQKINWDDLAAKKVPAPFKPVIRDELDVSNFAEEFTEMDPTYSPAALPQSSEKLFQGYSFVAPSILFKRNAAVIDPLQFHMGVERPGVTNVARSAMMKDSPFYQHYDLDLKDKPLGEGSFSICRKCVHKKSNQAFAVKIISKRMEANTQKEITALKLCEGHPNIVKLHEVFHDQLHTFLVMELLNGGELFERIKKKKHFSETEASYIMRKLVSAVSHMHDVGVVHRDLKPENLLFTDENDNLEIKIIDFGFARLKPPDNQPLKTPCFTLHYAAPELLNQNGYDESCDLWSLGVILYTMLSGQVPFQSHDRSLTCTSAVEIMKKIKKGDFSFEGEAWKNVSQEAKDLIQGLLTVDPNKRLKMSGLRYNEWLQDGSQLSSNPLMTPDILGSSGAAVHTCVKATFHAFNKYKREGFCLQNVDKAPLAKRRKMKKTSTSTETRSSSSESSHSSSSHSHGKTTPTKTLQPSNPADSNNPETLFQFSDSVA

[2] = tested on: FLT3 (human), P36888 [D835Y]
MAPK12 (human) = MAPK12 (human) (UniProt P53778)
PRKACA (human) = PRKACA (human) (UniProt P17612)
RPS6KA4 KD1 KD2 (human) = RPS6KA4 KD1 KD2 (human) (UniProt O75676)
[3] = tested on: ABL1 (human), P00519 [H396P]
PRKD2 (human) = PRKD2 (human) (UniProt Q9BZL6)
Chain of PRKD2 (human) (Q9BZL6 whole entry, looked up): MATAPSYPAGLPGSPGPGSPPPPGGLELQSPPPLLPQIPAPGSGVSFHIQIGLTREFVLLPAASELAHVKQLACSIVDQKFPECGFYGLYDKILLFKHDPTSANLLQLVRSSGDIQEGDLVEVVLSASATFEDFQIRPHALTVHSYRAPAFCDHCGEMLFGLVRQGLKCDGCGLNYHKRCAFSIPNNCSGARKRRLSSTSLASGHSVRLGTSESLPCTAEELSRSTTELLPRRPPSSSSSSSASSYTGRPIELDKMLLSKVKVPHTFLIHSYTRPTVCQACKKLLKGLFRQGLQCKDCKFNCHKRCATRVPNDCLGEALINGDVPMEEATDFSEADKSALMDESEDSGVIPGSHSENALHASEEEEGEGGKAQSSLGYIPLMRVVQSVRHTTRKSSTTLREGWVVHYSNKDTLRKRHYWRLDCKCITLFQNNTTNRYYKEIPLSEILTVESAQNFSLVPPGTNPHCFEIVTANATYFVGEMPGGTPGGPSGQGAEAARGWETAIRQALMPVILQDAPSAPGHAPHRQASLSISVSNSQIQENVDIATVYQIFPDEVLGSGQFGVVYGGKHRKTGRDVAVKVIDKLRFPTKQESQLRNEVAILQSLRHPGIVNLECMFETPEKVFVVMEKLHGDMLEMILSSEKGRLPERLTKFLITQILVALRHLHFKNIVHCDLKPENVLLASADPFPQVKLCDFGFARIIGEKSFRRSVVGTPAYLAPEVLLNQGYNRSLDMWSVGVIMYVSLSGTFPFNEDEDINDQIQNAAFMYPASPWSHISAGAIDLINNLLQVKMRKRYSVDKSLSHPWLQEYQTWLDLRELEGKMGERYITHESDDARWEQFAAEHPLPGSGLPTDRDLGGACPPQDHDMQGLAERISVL

RPS6KA2 KD1 KD2 (human) = RPS6KA2 KD1 KD2 (human) (UniProt Q15349)
Chain of RPS6KA2 KD1 KD2 (human) (Q15349 whole entry, looked up): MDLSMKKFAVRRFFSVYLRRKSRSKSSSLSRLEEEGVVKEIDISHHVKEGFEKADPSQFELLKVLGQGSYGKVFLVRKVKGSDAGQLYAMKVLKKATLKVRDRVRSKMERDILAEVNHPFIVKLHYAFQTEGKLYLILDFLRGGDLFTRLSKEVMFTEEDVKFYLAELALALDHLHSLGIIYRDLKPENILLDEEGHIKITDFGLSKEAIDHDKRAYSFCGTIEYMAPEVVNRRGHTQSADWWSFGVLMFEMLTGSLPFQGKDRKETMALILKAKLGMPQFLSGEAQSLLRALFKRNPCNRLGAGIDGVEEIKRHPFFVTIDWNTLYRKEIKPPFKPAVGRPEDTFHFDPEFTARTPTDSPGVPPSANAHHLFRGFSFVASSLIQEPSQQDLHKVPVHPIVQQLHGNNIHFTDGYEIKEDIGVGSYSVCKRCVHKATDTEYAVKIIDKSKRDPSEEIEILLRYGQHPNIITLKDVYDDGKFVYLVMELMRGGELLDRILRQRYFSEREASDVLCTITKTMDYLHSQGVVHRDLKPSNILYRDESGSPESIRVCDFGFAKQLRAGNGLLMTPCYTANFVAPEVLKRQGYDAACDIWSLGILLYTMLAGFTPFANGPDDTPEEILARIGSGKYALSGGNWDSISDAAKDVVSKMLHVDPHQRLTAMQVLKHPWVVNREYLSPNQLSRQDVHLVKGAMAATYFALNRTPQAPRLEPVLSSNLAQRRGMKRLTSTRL

PRKCG (human) = PRKCG (human) (UniProt P05129)
SRC (human) = SRC (human) (UniProt P12931)
SGK2 (human) = SGK2 (human) (UniProt Q9HBY8)
MAPKAPK2 (human) = MAPKAPK2 (human) (UniProt P49137)
Chain of MAPKAPK2 (human) (P49137 whole entry, looked up): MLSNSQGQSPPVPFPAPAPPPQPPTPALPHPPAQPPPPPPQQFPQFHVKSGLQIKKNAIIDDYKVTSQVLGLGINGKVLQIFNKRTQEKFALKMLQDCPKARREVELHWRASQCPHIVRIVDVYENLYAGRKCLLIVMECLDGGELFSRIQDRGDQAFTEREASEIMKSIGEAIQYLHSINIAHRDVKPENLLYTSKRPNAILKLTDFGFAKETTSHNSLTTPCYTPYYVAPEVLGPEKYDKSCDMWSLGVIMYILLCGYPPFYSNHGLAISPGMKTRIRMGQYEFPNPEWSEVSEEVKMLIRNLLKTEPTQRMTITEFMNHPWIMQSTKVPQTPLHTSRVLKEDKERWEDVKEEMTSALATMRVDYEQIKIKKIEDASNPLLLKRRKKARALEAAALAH

PDGFRA (human) = PDGFRA (human) (UniProt P16234)
FYN (human) = FYN (human) (UniProt P06241)
Chain of FYN (human) (P06241 whole entry, looked up): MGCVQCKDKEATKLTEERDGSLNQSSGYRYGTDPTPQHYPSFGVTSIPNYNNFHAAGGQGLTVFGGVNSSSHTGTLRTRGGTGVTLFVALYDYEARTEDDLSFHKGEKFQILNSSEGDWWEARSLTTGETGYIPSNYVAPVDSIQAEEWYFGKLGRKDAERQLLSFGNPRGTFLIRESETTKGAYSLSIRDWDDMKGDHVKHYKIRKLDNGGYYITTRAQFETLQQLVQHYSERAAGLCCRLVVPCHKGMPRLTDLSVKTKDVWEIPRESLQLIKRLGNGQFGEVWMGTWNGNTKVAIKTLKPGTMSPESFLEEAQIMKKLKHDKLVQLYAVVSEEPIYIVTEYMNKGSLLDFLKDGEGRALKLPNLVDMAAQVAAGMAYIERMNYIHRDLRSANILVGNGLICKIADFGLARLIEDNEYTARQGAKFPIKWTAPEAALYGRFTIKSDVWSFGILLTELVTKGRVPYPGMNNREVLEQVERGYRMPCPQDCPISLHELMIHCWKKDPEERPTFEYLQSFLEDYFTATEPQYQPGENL

PRKCQ (human) = PRKCQ (human) (UniProt Q04759)
CAMK2G (human) = CAMK2G (human) (UniProt Q13555)
FGFR3 (human) = FGFR3 (human) (UniProt P22607)
BTK (human) = BTK (human) (UniProt Q06187); details: compound 1.0 µM
PRKCA (human) = PRKCA (human) (UniProt P17252)
MAPKAPK3 (human) = MAPKAPK3 (human) (UniProt Q16644)
Chain of MAPKAPK3 (human) (Q16644 whole entry, looked up): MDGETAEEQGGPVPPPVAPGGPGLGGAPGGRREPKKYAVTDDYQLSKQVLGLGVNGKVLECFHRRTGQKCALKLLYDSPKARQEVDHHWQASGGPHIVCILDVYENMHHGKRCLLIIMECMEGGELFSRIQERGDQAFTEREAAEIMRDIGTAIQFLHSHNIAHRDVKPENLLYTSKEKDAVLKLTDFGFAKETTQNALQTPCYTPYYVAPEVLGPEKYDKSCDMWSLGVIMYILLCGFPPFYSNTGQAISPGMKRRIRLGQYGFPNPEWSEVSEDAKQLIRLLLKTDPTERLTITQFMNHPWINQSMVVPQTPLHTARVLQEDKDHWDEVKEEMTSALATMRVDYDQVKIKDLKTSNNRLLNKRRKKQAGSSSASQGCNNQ

RPS6KB1 (human) = RPS6KB1 (human) (UniProt P23443)
PRKCZ (human) = PRKCZ (human) (UniProt Q05513)

## Cn1cc(-c2cnc3ccc4ccc(CS(=O)(=O)NCC5CCCCN5)cc4c(=O)c3c2)cn1 (stereo not given)
MARK1 (human); compound 0.1 µM
  inhibition: -3.9%
MARK1 (human); compound 1.0 µM
  inhibition: 33.5%
[1]; compound 0.1 µM
  inhibition: 3.3%
BRSK2 (human); compound 0.1 µM
  inhibition: -1.3%
BRSK2 (human); compound 1.0 µM
  inhibition: -9.5%
IKBKB (human); compound 0.1 µM
  inhibition: 1.9%
FGFR2 (human); compound 0.1 µM
  inhibition: 3%
PRKG1 (human); compound 0.1 µM
  inhibition: -3.8% and -2.5%
PRKG1 (human); compound 1.0 µM
  inhibition: -2.7%
MARK2 (human); compound 0.1 µM
  inhibition: -12.6%
MARK2 (human); compound 1.0 µM
  inhibition: 2.4%
NEK2 (human); compound 0.1 µM
  inhibition: 2.7%
NEK2 (human); compound 1.0 µM
  inhibition: -2.2%
SGK3 (human); compound 0.1 µM
  inhibition: 0.3%
SGK3 (human); compound 1.0 µM
  inhibition: -0.7%
BRSK1 (human); compound 0.1 µM
  inhibition: 2%
BRSK1 (human); compound 1.0 µM
  inhibition: 5.2%
PRKCD (human); compound 0.1 µM
  inhibition: -38.2%
PRKCD (human); compound 1.0 µM
  inhibition: -8.2%
MAPK1 (human); compound 0.1 µM
  inhibition: 1.1%
MAPK1 (human); compound 1.0 µM
  inhibition: -4.4%
RPS6KA5 KD1 KD2 (human); compound 0.1 µM
  inhibition: 0.7%
RPS6KA5 KD1 KD2 (human); compound 1.0 µM
  inhibition: -0.4%
[2]; compound 0.1 µM
  inhibition: -0.3%
MAPK12 (human); compound 0.1 µM
  inhibition: -3.3%
MAPK12 (human); compound 1.0 µM
  inhibition: -11.8%
PRKACA (human); compound 0.1 µM
  inhibition: -1.4%
PRKACA (human); compound 1.0 µM
  inhibition: 0.3%
RPS6KA4 KD1 KD2 (human); compound 0.1 µM
  inhibition: 0.2%
RPS6KA4 KD1 KD2 (human); compound 1.0 µM
  inhibition: -17.3%
[3]; compound 0.1 µM
  inhibition: 14.9%
PRKD2 (human); compound 0.1 µM
  inhibition: -3.8%
PRKD2 (human); compound 1.0 µM
  inhibition: 15%
RPS6KA2 KD1 KD2 (human); compound 0.1 µM
  inhibition: -1.6%
RPS6KA2 KD1 KD2 (human); compound 1.0 µM
  inhibition: -5.3%
PRKCG (human); compound 0.1 µM
  inhibition: 6.2%
PRKCG (human); compound 1.0 µM
  inhibition: 2.7%
SRC (human); compound 0.1 µM
  inhibition: 3.2%
SRC (human); compound 1.0 µM
  inhibition: 2.1%
SGK2 (human); compound 0.1 µM
  inhibition: -9%
SGK2 (human); compound 1.0 µM
  inhibition: -11.8%
MAPKAPK2 (human); compound 0.1 µM
  inhibition: 7.6%
MAPKAPK2 (human); compound 1.0 µM
  inhibition: 1.3%
PDGFRA (human); compound 0.1 µM
  inhibition: 17.5%
FYN (human); compound 0.1 µM
  inhibition: 4.37%
FYN (human); compound 1.0 µM
  inhibition: 15.1%
PRKCQ (human); compound 0.1 µM
  inhibition: -15.1%
PRKCQ (human); compound 1.0 µM
  inhibition: 2.1%
CAMK2G (human); compound 0.1 µM
  inhibition: -7.4%
FGFR3 (human); compound 0.1 µM
  inhibition: -12.6%
BTK (human)
  inhibition: 65%
PRKCA (human); compound 0.1 µM
  inhibition: -28%
PRKCA (human); compound 1.0 µM
  inhibition: -0.1%
MAPKAPK3 (human); compound 0.1 µM
  inhibition: -2.7%
RPS6KB1 (human); compound 0.1 µM
  inhibition: -2.7%
RPS6KB1 (human); compound 1.0 µM
  inhibition: 0%
PRKCZ (human); compound 0.1 µM
  inhibition: -8%
PRKCZ (human); compound 1.0 µM
  inhibition: 1.3%

## Cn1cc(-c2cnc3ccc4ccc(CS(N)(=O)=O)cc4c(=O)c3c2)cn1
MARK1 (human); compound 0.1 µM
  inhibition: 16.5%
MARK1 (human); compound 1.0 µM
  inhibition: 81.8%
[1]; compound 0.1 µM
  inhibition: 1.4%
[1]; compound 1.0 µM
  inhibition: 12.7%
IKBKB (human); compound 0.1 µM
  inhibition: -12%
IKBKB (human); compound 1.0 µM
  inhibition: 4.2%
FGFR2 (human); compound 0.1 µM
  inhibition: 21.8%
FGFR2 (human); compound 1.0 µM
  inhibition: 47.9%
PRKG1 (human); compound 0.1 µM
  inhibition: -0.5% and 2.6%
PRKG1 (human); compound 1.0 µM
  inhibition: 9.6% and -5.9%
NEK2 (human); compound 0.1 µM
  inhibition: -1.5%
NEK2 (human); compound 1.0 µM
  inhibition: -7.5%
SGK3 (human); compound 0.1 µM
  inhibition: -1.4%
SGK3 (human); compound 1.0 µM
  inhibition: 3.9%
BRSK1 (human); compound 0.1 µM
  inhibition: 5.6%
BRSK1 (human); compound 1.0 µM
  inhibition: 12.5%
PRKCD (human); compound 0.1 µM
  inhibition: 5.1%
MAPK1 (human); compound 0.1 µM
  inhibition: -5.5%
MAPK1 (human); compound 1.0 µM
  inhibition: 0.8%
RPS6KA5 KD1 KD2 (human); compound 0.1 µM
  inhibition: 8%
RPS6KA5 KD1 KD2 (human); compound 1.0 µM
  inhibition: 4.1%
[2]; compound 0.1 µM
  inhibition: 19.1%
[2]; compound 1.0 µM
  inhibition: 73.7%
MAPK12 (human); compound 0.1 µM
  inhibition: -5.4%
MAPK12 (human); compound 1.0 µM
  inhibition: 2.9%
PRKACA (human); compound 0.1 µM
  inhibition: -5.5%
PRKACA (human); compound 1.0 µM
  inhibition: -1.1%
RPS6KA4 KD1 KD2 (human); compound 0.1 µM
  inhibition: 15.2%
[3]; compound 0.1 µM
  inhibition: -0.9%
[3]; compound 1.0 µM
  inhibition: 9.4%
PRKD2 (human); compound 0.1 µM
  inhibition: 7.3%
PRKD2 (human); compound 1.0 µM
  inhibition: -2.6%
RPS6KA2 KD1 KD2 (human); compound 0.1 µM
  inhibition: -0.2%
RPS6KA2 KD1 KD2 (human); compound 1.0 µM
  inhibition: 9%
PRKCG (human); compound 0.1 µM
  inhibition: -1.4%
SRC (human); compound 0.1 µM
  inhibition: 0.2%
SRC (human); compound 1.0 µM
  inhibition: 1.3%
SGK2 (human); compound 0.1 µM
  inhibition: -0.9%
SGK2 (human); compound 1.0 µM
  inhibition: 23.1%
MAPKAPK2 (human); compound 0.1 µM
  inhibition: -2.6%
MAPKAPK2 (human); compound 1.0 µM
  inhibition: 8%
PDGFRA (human); compound 0.1 µM
  inhibition: -19.1%
PDGFRA (human); compound 1.0 µM
  inhibition: 15.5%
FYN (human); compound 0.1 µM
  inhibition: -3.7%
FYN (human); compound 1.0 µM
  inhibition: 6%
PRKCQ (human); compound 0.1 µM
  inhibition: 5.2%
CAMK2G (human); compound 0.1 µM
  inhibition: -17.9%
CAMK2G (human); compound 1.0 µM
  inhibition: -1.6%
FGFR3 (human); compound 0.1 µM
  inhibition: 41.1%
FGFR3 (human); compound 1.0 µM
  inhibition: 57.9%
PRKCA (human); compound 0.1 µM
  inhibition: 3.1%
MAPKAPK3 (human); compound 0.1 µM
  inhibition: 5.4%
MAPKAPK3 (human); compound 1.0 µM
  inhibition: 5.7%
RPS6KB1 (human); compound 0.1 µM
  inhibition: 10%
RPS6KB1 (human); compound 1.0 µM
  inhibition: 13.5%
PRKCZ (human); compound 0.1 µM
  inhibition: -6.7%
PRKCZ (human); compound 1.0 µM
  inhibition: 1%
